Results: US20040248765A1, “Tumour targeting prodrugs activated by metallo matrixproteinases” (priority 2001, published 2004)
Where a SMILES comes first, the peptide text is derived from it. [ ]: non-standard residue; d: D form. The star is where a group is joined. NH(CH2)3NH(1-anthraquinonyl) = O=C1c2ccccc2C(=O)c2c(NCCCN*)cccc21; Nle = CCCC[C@H](N)C(=O)O; Nva = CCC[C@H](N)C(=O)O; Mob = COc1ccc(C*)cc1

| Compound | melting point |
| --- | --- |
| CC[C@H](C)[C@H](NC(=O)[C@H](Cc1ccccc1)NC(=O)[C@H](CC(C)C)NC(=O)[C@@H](C)N)C(=O)NCC(=O)N[C@@H](Cc1ccccc1)C(=O)N1CCC[C@@H]1C(=O)NCCCNc1cccc2c1C(=O)c1ccccc1C2=O.O=C(O)C(F)(F)F | 144 to 146 °C |
| CCC[C@H](NC(=O)[C@H](C)N)C(=O)NCC(=O)N[C@@H](CC(C)C)C(=O)N1CCC[C@H]1C(=O)NCCCNc1cccc2c1C(=O)c1ccccc1C2=O.O=C(O)C(F)(F)F (H-A[Nva]GLP-{NH(CH2)3NH(1-anthraquinonyl)}) | 198 °C |
| CC(C)C[C@H](NC(=O)[C@H](C)NC(=O)[C@H](C)NC(=O)[C@H](N)CCCCN)C(=O)NCC(=O)N[C@@H](CC(C)C)C(=O)N1CCC[C@H]1C(=O)NCCCNc1cccc2c1C(=O)c1ccccc1C2=O.O=C(O)C(F)(F)F.O=C(O)C(F)(F)F | 196 °C |
| CCC[C@H](N)C(=O)N[C@@H](CC(C)C)C(=O)NCC(=O)N[C@@H](CC(C)C)C(=O)N1CCC[C@H]1C(=O)NCCCNc1cccc2c1C(=O)c1ccccc1C2=O.O=C(O)C(F)(F)F (H-[Nva]LGLP-{NH(CH2)3NH(1-anthraquinonyl)}) | 189 °C |
| NCC(=O)N[C@@H](Cc1ccccc1)C(=O)N1CCC[C@@H]1C(=O)NCCCNc1cccc2c1C(=O)c1ccccc1C2=O.O=C(O)C(F)(F)F | 128 to 130 °C |
| CCCC[C@H](NC(=O)[C@H](C)NC(=O)[C@H](C)NC(=O)[C@@H](C)N)C(=O)NCC(=O)N[C@@H](CC(C)C)C(=O)N1CCC[C@H]1C(=O)NCCCNc1cccc2c1C(=O)c1ccccc1C2=O.O=C(O)C(F)(F)F | 192 °C |
| NCCCNc1cccc2c1C(=O)c1ccccc1C2=O | 196 °C |
| CCC[C@H](NC(=O)[C@H](C)NC(=O)[C@@H](C)N)C(=O)N[C@@H](CC(C)C)C(=O)NCC(=O)N[C@@H](CC(C)C)C(=O)N1CCC[C@H]1C(=O)NCCCNc1cccc2c1C(=O)c1ccccc1C2=O.O=C(O)C(F)(F)F | 174 to 178 °C |
| CCC[C@H](NC(=O)CNC(=O)[C@H](CC(C)C)NC(=O)[C@H](C)N)C(=O)N1CCC[C@H]1C(=O)NCCCNc1cccc2c1C(=O)c1ccccc1C2=O.O=C(O)C(F)(F)F (H-ALG[Nva]P-{NH(CH2)3NH(1-anthraquinonyl)}) | 176 to 178 °C |
| COc1ccc(CSC[C@H](NC(=O)[C@H](C)NC(=O)[C@H](C)N)C(=O)NCC(=O)N[C@@H](CC(C)C)C(=O)N2CCC[C@H]2C(=O)NCCCNc2cccc3c2C(=O)c2ccccc2C3=O)cc1.O=C(O)C(F)(F)F (H-AAC(Mob)GLP-{NH(CH2)3NH(1-anthraquinonyl)}) | 182 °C |
| CC(C)C[C@H](NC(=O)[C@H](Cc1ccc(O)cc1)NC(=O)[C@H](C)N)C(=O)NCC(=O)N[C@@H](CC(C)C)C(=O)N1CCC[C@H]1C(=O)NCCCNc1cccc2c1C(=O)c1ccccc1C2=O.O=C(O)C(F)(F)F (H-AYLGLP-{NH(CH2)3NH(1-anthraquinonyl)}) | 182 °C |
| CC(C)C[C@H](N)C(=O)NCC(=O)N1CCC[C@H]1C(=O)NCCCNc1cccc2c1C(=O)c1ccccc1C2=O.O=C(O)C(F)(F)F | 172 to 174 °C |
| CC(C)C[C@H](NC(=O)[C@H](C)NC(=O)[C@@H](N)CC(C)C)C(=O)N1CCC[C@H]1C(=O)NCCCNc1cccc2c1C(=O)c1ccccc1C2=O.O=C(O)C(F)(F)F (H-LALP-{NH(CH2)3NH(1-anthraquinonyl)}) | 178 to 180 °C |
| CC(C)C[C@H](NC(=O)[C@H](C)N)C(=O)NCC(=O)N[C@@H](CC(C)C)C(=O)N1CCC[C@@H]1C(=O)NCCCNc1cccc2c1C(=O)c1ccccc1C2=O.O=C(O)C(F)(F)F | 168 °C |
| CCC[C@H](NC(=O)[C@@H](N)Cc1ccc(O)cc1)C(=O)NCC(=O)N[C@@H](CC(C)C)C(=O)N1CCC[C@H]1C(=O)NCCCNc1cccc2c1C(=O)c1ccccc1C2=O.O=C(O)C(F)(F)F (H-Y[Nva]GLP-{NH(CH2)3NH(1-anthraquinonyl)}) | 174 °C |
| CCC[C@H](NC(=O)[C@H](Cc1ccc(O)cc1)NC(=O)[C@H](C)NC(=O)[C@@H](C)N)C(=O)NCC(=O)N[C@@H](CC(C)C)C(=O)N1CCC[C@H]1C(=O)NCCCNc1cccc2c1C(=O)c1ccccc1C2=O.O=C(O)C(F)(F)F | 190 °C |
| CC[C@H](C)[C@H](NC(=O)[C@@H](N)Cc1ccccc1)C(=O)NCC(=O)N[C@@H](Cc1ccccc1)C(=O)N1CCC[C@@H]1C(=O)NCCCNc1cccc2c1C(=O)c1ccccc1C2=O.O=C(O)C(F)(F)F | 130 to 134 °C |
| CC(C)C[C@H](NC(=O)[C@@H](N)Cc1ccccc1)C(=O)NCC(=O)N1CCC[C@H]1C(=O)NCCCNc1cccc2c1C(=O)c1ccccc1C2=O.O=C(O)C(F)(F)F | 164 to 168 °C |
| CC(C)C[C@H](NC(=O)CNC(=O)[C@H](C)NC(=O)[C@@H](C)N)C(=O)N[C@@H](C)C(=O)N[C@@H](CC(C)C)C(=O)N1CCC[C@H]1C(=O)NCCCNc1cccc2c1C(=O)c1ccccc1C2=O.O=C(O)C(F)(F)F | 192 °C |
| CSC[C@H](NC(=O)[C@H](C)NC(=O)[C@H](C)NC(=O)[C@@H](C)N)C(=O)NCC(=O)N[C@@H](CC(C)C)C(=O)N1CCC[C@H]1C(=O)NCCCNc1cccc2c1C(=O)c1ccccc1C2=O.O=C(O)C(F)(F)F | 191 °C |
| CC(C)C[C@H](NC(=O)[C@H](C)N)C(=O)N1CCC[C@H]1C(=O)NCCCNc1cccc2c1C(=O)c1ccccc1C2=O.O=C(O)C(F)(F)F | 170 to 174 °C |

| Compound | melting point |
| --- | --- |
| CCC[C@H](NC(=O)[C@H](C)N)C(=O)N[C@@H](CC(C)C)C(=O)NCC(=O)N[C@@H](CC(C)C)C(=O)N1CCC[C@H]1C(=O)NCCCNc1cccc2c1C(=O)c1ccccc1C2=O.O=C(O)C(F)(F)F (H-A[Nva]LGLP-{NH(CH2)3NH(1-anthraquinonyl)}) | 192 °C |
| CC(C)C[C@H](NC(=O)CNC(=O)[C@H](C)N)C(=O)N[C@@H](Cc1ccccc1)C(=O)N[C@@H](CC(C)C)C(=O)N1CCC[C@H]1C(=O)NCCCNc1cccc2c1C(=O)c1ccccc1C2=O.O=C(O)C(F)(F)F (H-AGLFLP-{NH(CH2)3NH(1-anthraquinonyl)}) | 186 °C |
| CC(C)C[C@H](NC(=O)CN)C(=O)N[C@@H](C)C(=O)N[C@@H](CC(C)C)C(=O)N1CCC[C@H]1C(=O)NCCCNc1cccc2c1C(=O)c1ccccc1C2=O.O=C(O)C(F)(F)F (H-GLALP-{NH(CH2)3NH(1-anthraquinonyl)}) | 192 to 194 °C |
| CSC[C@H](NC(=O)[C@H](Cc1ccc(O)cc1)NC(=O)[C@H](C)NC(=O)[C@@H](C)N)C(=O)NCC(=O)N[C@@H](CC(C)C)C(=O)N1CCC[C@H]1C(=O)NCCCNc1cccc2c1C(=O)c1ccccc1C2=O.O=C(O)C(F)(F)F | 195 °C |
| CC(C)C[C@H](N)C(=O)NCC(=O)N1CCC[C@@H]1C(=O)NCCCNc1cccc2c1C(=O)c1ccccc1C2=O.O=C(O)C(F)(F)F | 174 to 178 °C |
| N[C@@H](Cc1ccccc1)C(=O)N1CCC[C@@H]1C(=O)NCCCNc1cccc2c1C(=O)c1ccccc1C2=O.O=C(O)C(F)(F)F | 118 to 120 °C |
| COc1ccc(CSC[C@H](N)C(=O)NCC(=O)N[C@@H](CC(C)C)C(=O)N2CCC[C@H]2C(=O)NCCCNc2cccc3c2C(=O)c2ccccc2C3=O)cc1.O=C(O)C(F)(F)F (H-C(Mob)GLP-{NH(CH2)3NH(1-anthraquinonyl)}) | 182 °C |
| CC(C)C[C@H](NC(=O)[C@H](Cc1ccccc1)NC(=O)CN)C(=O)NCC(=O)N1CCC[C@H]1C(=O)NCCCNc1cccc2c1C(=O)c1ccccc1C2=O.O=C(O)C(F)(F)F | 157 °C |
| CCCC[C@H](NC(=O)[C@H](C)N)C(=O)NCC(=O)N[C@@H](CC(C)C)C(=O)N1CCC[C@H]1C(=O)NCCCNc1cccc2c1C(=O)c1ccccc1C2=O.O=C(O)C(F)(F)F (H-A[Nle]GLP-{NH(CH2)3NH(1-anthraquinonyl)}) | 185 °C |
| CC(C)C[C@H](NC(=O)[C@H](Cc1ccccc1)NC(=O)[C@@H](N)CC(C)C)C(=O)N1CCC[C@H]1C(=O)NCCCNc1cccc2c1C(=O)c1ccccc1C2=O.O=C(O)C(F)(F)F (H-LFLP-{NH(CH2)3NH(1-anthraquinonyl)}) | 184 to 186 °C |
| NCC(=O)N1CCC[C@@H]1C(=O)NCCCNc1cccc2c1C(=O)c1ccccc1C2=O.O=C(O)C(F)(F)F | 156 to 162 °C |
| NCC(=O)N1CCC[C@H]1C(=O)NCCCNc1cccc2c1C(=O)c1ccccc1C2=O.O=C(O)C(F)(F)F | 160 to 166 °C |
| CCC[C@H](NC(=O)[C@H](Cc1ccc(O)cc1)NC(=O)[C@H](C)N)C(=O)NCC(=O)N[C@@H](CC(C)C)C(=O)N1CCC[C@H]1C(=O)NCCCNc1cccc2c1C(=O)c1ccccc1C2=O.O=C(O)C(F)(F)F (H-AY[Nva]GLP-{NH(CH2)3NH(1-anthraquinonyl)}) | 182 °C |
| CC(C)C[C@H](NC(=O)CNC(=O)[C@H](C)NC(=O)[C@@H](C)N)C(=O)N[C@@H](Cc1ccccc1)C(=O)N[C@@H](CC(C)C)C(=O)N1CCC[C@H]1C(=O)NCCCNc1cccc2c1C(=O)c1ccccc1C2=O.O=C(O)C(F)(F)F | 190 to 194 °C |
| CC[C@H](C)[C@H](NC(=O)[C@H](Cc1ccccc1)NC(=O)[C@@H](N)CC(C)C)C(=O)NCC(=O)N[C@@H](Cc1ccccc1)C(=O)N1CCC[C@@H]1C(=O)NCCCNc1cccc2c1C(=O)c1ccccc1C2=O.O=C(O)C(F)(F)F | 168 to 170 °C |
| CCC[C@H](N)C(=O)NCC(=O)N[C@@H](CC(C)C)C(=O)N1CCC[C@H]1C(=O)NCCCNc1cccc2c1C(=O)c1ccccc1C2=O.O=C(O)C(F)(F)F (H-[Nva]GLP-{NH(CH2)3NH(1-anthraquinonyl)}) | 210 °C |
| CCC[C@H](NC(=O)CN)C(=O)N1CCC[C@H]1C(=O)NCCCNc1cccc2c1C(=O)c1ccccc1C2=O.O=C(O)C(F)(F)F | 196 °C |
| CC(C)C[C@H](NC(=O)CNC(=O)[C@H](C)N)C(=O)N[C@@H](C)C(=O)N[C@@H](CC(C)C)C(=O)N1CCC[C@H]1C(=O)NCCCNc1cccc2c1C(=O)c1ccccc1C2=O.O=C(O)C(F)(F)F (H-AGLALP-{NH(CH2)3NH(1-anthraquinonyl)}) | 185 °C |
| CCC[C@H](NC(=O)CNC(=O)[C@@H](N)CC(C)C)C(=O)N1CCC[C@H]1C(=O)NCCCNc1cccc2c1C(=O)c1ccccc1C2=O.O=C(O)C(F)(F)F (H-LG[Nva]P-{NH(CH2)3NH(1-anthraquinonyl)}) | 172 to 176 °C |
| CC(C)C[C@H](NC(=O)[C@@H](N)Cc1ccccc1)C(=O)NCC(=O)N1CCC[C@@H]1C(=O)NCCCNc1cccc2c1C(=O)c1ccccc1C2=O.O=C(O)C(F)(F)F | 170 °C |
